The text below walks through data of ChEMBL document CHEMBL1150641, “Bryoanthrathiophene, a new antiangiogenic constituent from the bryozoan Watersipora subtorquata (d'Orbigny, 1852)” (J Nat Prod, 2002).

A short description of test [1]: Antiangiogenic activity against BAEC assessed as inhibition of bFGF-induced cell proliferation after 3 days by MTT assay. The class given is functional, Bos taurus. A general note: Formazan colour is commonly taken as a measure of viable cells.
Test [2] in a line: Antiangiogenic activity against BAEC assessed as inhibition of bFGF-induced cell proliferation in presence of 10% fetal bovine serum after 3 days by MTT assay. The class given is functional, Bos taurus.
For a further test, the system named is BAEC. The test is described as follows: Reduction of tube formation in bFGF-induced BAEC at 20 nM by Matrigel based tube formation assay. The class given is functional, cell-based. To be noted: Bos taurus, TDE = time-dependent effect.

Structures are written as SMILES.

What is called IC50 is the concentration that inhibits the measured activity by half. Turning to `COC(=O)c1sc2ccc(O)c3c2c1-c1cccc(O)c1C3=O`, the IC50 amounted to 2.2 µM in test [1] and 25.8 µM in test [2].

With `Cc1sc2ccc(O)c3c2c1-c1cccc(O)c1C3=O` [BRYOANTHRATHIOPHENE], the Activity result in the test with BAEC is “tde”. Also, the IC50 in test [1] amounted to 0.005 µM; in test [2], 0.22 µM.

On to `O=C1c2cccc(O)c2C(=O)c2c(O)cccc21` [DANTHRON], for which the IC50 in test [1] is 5.7 µM; in test [2], 20.1 µM.
